Assay: recombinant UMI read abundance after kanamycin selection (control-corrected) (log10(CPM+1)); higher = more efficient recombination; extreme values may be limits of the assay; sequences stand for … in AGTGCAGAGAAAATCGGCCAGTTTTCTCTGCCTGCAGTCCGCATGCCGTGGGACCCCTTGGGTTCTAACCTGTTGCCTAGATTTATGCAGCGGACTGCCTTTCTCCCAAAGTGATAAACCGG…AGGTTGGTTTCACT; site = the 11-nt donor
Method in brief: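 Each donor and donor-binding-loop pair was tracked by a 12-nt UMI on a plasmid carrying a promoterless kanamycin gene. With a second plasmid supplying a fixed target and T7-inducible IS621 bridge recombinase, the pool was plated in Escherichia coli on IPTG (0.07 mM) plus kanamycin or unselected. Sequencing of recombinant UMIs across the donor–target junction gave counts expressed as log10(CPM+1) after replicate averaging and control-derived scaling.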
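Also: IS621 bridge recombinase in Escherichia coli cells against a fixed T5 target plasmid.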

Sequence | recombinant UMI read abundance (log10)
AGGTAGCCATGGACCGGTTTTCCCGGTAATCCGTATTTGCA (site AGGTAGCCTTG) | 0
AGGTAGCCATGGACCGGTTTTCCCGGTAATCCGTATTTGTA (site AGGTAGCCTTA) | 0.215
AGGTAGGCATGGACCGGTTTTCCCGGTAATCCGTATTTGGC (site AAGTAGGCTGC) | 0.588
AGGTAGGCATGGACCGGTTTTCCCGGTAATCCGTATTTGGC (site ACGTAGGCTGC) | 1.87
AGGTAGGCATGGACCGGTTTTCCCGGTAATCCGTATTTGGC (site AGGTAGGCTGC) | 2.65
AGGTAGGCATGGACCGGTTTTCCCGGTAATCCGTATTTGGC (site ATGTAGGCTGC) | 0.775
AGGTGCGCATGGACCGGTTTTCCCGGTAATCCGTATTTGTA (site AGGTGCGCTTA) | 1.81
AGGTGGACATGGACCGGTTTTCCCGGTAATCCGTATTTGCA (site AGGAAGACTTG) | 1.46
AGGTGGACATGGACCGGTTTTCCCGGTAATCCGTATTTGCA (site AGGTGGACTTG) | 2.73
AGGTGGACATGGACCGGTTTTCCCGGTAATCCGTATTTGTA (site AGGTGGACTTA) | 2.2
AGGTGGCCATGGACCGGTTTTCCCGGTAATCCGTATTTGCC (site AGGTGGCCTGG) | 0
AGGTTCACATGGACCGGTTTTCCCGGTAATCCGTATTTGCC (site AGGTTCACTGG) | 2.11
AGGTTCCCATGGACCGGTTTTCCCGGTAATCCGTATTTGGG (site AGGTTCCCTCA) | 0.0189
AGGTTCCCATGGACCGGTTTTCCCGGTAATCCGTATTTGGG (site AGGTTCCCTCC) | 0.0153
AGGTTCCCATGGACCGGTTTTCCCGGTAATCCGTATTTGGG (site AGGTTCCCTCG) | 0.0155
AGGTTCCCATGGACCGGTTTTCCCGGTAATCCGTATTTGGG (site AGGTTCCCTCT) | 0.0453
AGTAAAGCATGGACCGGTTTTCCCGGTAATCCGTATTTGCA (site AGTAAAGCTTG) | 1.97
AGTAACGCATGGACCGGTTTTCCCGGTAATCCGTATTTGGT (site AGTAACGCTAC) | 1.7
AGTAAGACATGGACCGGTTTTCCCGGTAATCCGTATTTGAA (site AGGAAGACTTG) | 0
AGTAAGACATGGACCGGTTTTCCCGGTAATCCGTATTTGAA (site AGTAAGACTTT) | 1.27
AGTAAGACATGGACCGGTTTTCCCGGTAATCCGTATTTGTC (site AGTAAGACTGA) | 1.36
AGTAAGCCATGGACCGGTTTTCCCGGTAATCCGTATTTGCA (site AGGAAGACTTG) | 0
AGTAAGCCATGGACCGGTTTTCCCGGTAATCCGTATTTGCA (site AGTAAGCCTTG) | 0.539
AGTAAGGCATGGACCGGTTTTCCCGGTAATCCGTATTTGCT (site AGAAAGGCTAG) | 1.39
AGTAAGGCATGGACCGGTTTTCCCGGTAATCCGTATTTGCT (site AGCAAGGCTAG) | 1.21

Sequence | recombinant UMI read abundance (log10)
AGTAAGGCATGGACCGGTTTTCCCGGTAATCCGTATTTGCT (site AGGAAGGCTAG) | 0.32
AGTAAGGCATGGACCGGTTTTCCCGGTAATCCGTATTTGCT (site AGTAAGGCTAG) | 2.75
AGTAAGTCATGGACCGGTTTTCCCGGTAATCCGTATTTGAA (site AGTAAGTCTTT) | 2.1
AGTAGCACATGGACCGGTTTTCCCGGTAATCCGTATTTGAG (site AGTAGCACTCT) | 1.24
AGTAGGACATGGACCGGTTTTCCCGGTAATCCGTATTTGCA (site AGGAAGACTTG) | 1.45
AGTAGGACATGGACCGGTTTTCCCGGTAATCCGTATTTGCA (site AGTAGGACTTG) | 2.91
AGTAGGGCATGGACCGGTTTTCCCGGTAATCCGTATTTGAG (site AGTAGGGCTCT) | 1.41
AGTCAAGCATGGACCGGTTTTCCCGGTAATCCGTATTTGAA (site AGTCAAGCTTT) | 1.39
AGTCCAACATGGACCGGTTTTCCCGGTAATCCGTATTTGTA (site AGTCCAACTTA) | 0.694
AGTCCAACATGGACCGGTTTTCCCGGTAATCCGTATTTGTA (site CGTCCAACTTA) | 0
AGTCCAACATGGACCGGTTTTCCCGGTAATCCGTATTTGTA (site GGTCCAACTTA) | 0.172
AGTCCAACATGGACCGGTTTTCCCGGTAATCCGTATTTGTA (site TGTCCAACTTA) | 0.141
AGTCCTTCATGGACCGGTTTTCCCGGTAATCCGTATTTGCA (site AGTCCTTCTTG) | 1.24
AGTCTACCATGGACCGGTTTTCCCGGTAATCCGTATTTGCT (site AGTCTACCTAG) | 0
AGTGAGACATGGACCGGTTTTCCCGGTAATCCGTATTTGGT (site AATGAGACTAC) | 0.439
AGTGAGACATGGACCGGTTTTCCCGGTAATCCGTATTTGGT (site ACTGAGACTAC) | 0.312
AGTGAGACATGGACCGGTTTTCCCGGTAATCCGTATTTGGT (site AGTGAGACTAC) | 1.21
AGTGAGACATGGACCGGTTTTCCCGGTAATCCGTATTTGGT (site ATTGAGACTAC) | 0.546
AGTGCAACATGGACCGGTTTTCCCGGTAATCCGTATTTGGC (site AGTGCAACTGC) | 0
AGTGGCTCATGGACCGGTTTTCCCGGTAATCCGTATTTGAG (site AGTGGCTCTCT) | 1.27
AGTGGGACATGGACCGGTTTTCCCGGTAATCCGTATTTGGC (site AGTGGGACTGC) | 2.85
AGTGTAGCATGGACCGGTTTTCCCGGTAATCCGTATTTGGG (site AGTGTAGCTCC) | 0.00834
AGTGTGACATGGACCGGTTTTCCCGGTAATCCGTATTTGTA (site AGTGTGACTTA) | 1.91
AGTGTGTCATGGACCGGTTTTCCCGGTAATCCGTATTTGAC (site AATGTGTCTGT) | 0
AGTGTGTCATGGACCGGTTTTCCCGGTAATCCGTATTTGAC (site ACTGTGTCTGT) | 0.812

Sequence | recombinant UMI read abundance (log10)
AGTGTGTCATGGACCGGTTTTCCCGGTAATCCGTATTTGAC (site AGTGTGTCTGT) | 1.98
AGTGTGTCATGGACCGGTTTTCCCGGTAATCCGTATTTGAC (site ATTGTGTCTGT) | 0
AGTGTTACATGGACCGGTTTTCCCGGTAATCCGTATTTGCT (site AGTGTTACTAG) | 2.01
AGTTAGACATGGACCGGTTTTCCCGGTAATCCGTATTTGCA (site AGGAAGACTTG) | 1.51
AGTTAGACATGGACCGGTTTTCCCGGTAATCCGTATTTGCA (site AGTTAGACTTG) | 1.93
AGTTCAGCATGGACCGGTTTTCCCGGTAATCCGTATTTGGC (site AGTTCAGCTGC) | 0.972
AGTTCCACATGGACCGGTTTTCCCGGTAATCCGTATTTGGC (site AGTTCCACTGC) | 1.42
AGTTCCACATGGACCGGTTTTCCCGGTAATCCGTATTTGTA (site AGTTCCACTTA) | 0.751
AGTTGGTCATGGACCGGTTTTCCCGGTAATCCGTATTTGAA (site AGTTGGTCTTT) | 0.435
AGTTTCGCATGGACCGGTTTTCCCGGTAATCCGTATTTGGT (site AGTTTCGCTAC) | 0.564
ATAAGGCCATGGACCGGTTTTCCCGGTAATCCGTATTTGAT (site ATAAGGCCTAT) | 0.221
ATAAGGCCATGGACCGGTTTTCCCGGTAATCCGTATTTGAT (site ATAAGGCCTCT) | 0.00711
ATAAGGCCATGGACCGGTTTTCCCGGTAATCCGTATTTGAT (site ATAAGGCCTGT) | 0
ATAAGGCCATGGACCGGTTTTCCCGGTAATCCGTATTTGAT (site ATAAGGCCTTT) | 0.0201
ATAATGCCATGGACCGGTTTTCCCGGTAATCCGTATTTGAC (site ATAAAGCCTGT) | 0.589
ATAATGCCATGGACCGGTTTTCCCGGTAATCCGTATTTGAC (site ATAACGCCTGT) | 0.155
ATAATGCCATGGACCGGTTTTCCCGGTAATCCGTATTTGAC (site ATAAGGCCTGT) | 0
ATAATGCCATGGACCGGTTTTCCCGGTAATCCGTATTTGAC (site ATAATGCCTGT) | 2.03
ATACCCACATGGACCGGTTTTCCCGGTAATCCGTATTTGAC (site ATACCCACTGT) | 2.65
ATACGCACATGGACCGGTTTTCCCGGTAATCCGTATTTGAA (site ATACGCACTTT) | 1.55
ATACGCACATGGACCGGTTTTCCCGGTAATCCGTATTTGTT (site ATACGCACTAA) | 1.29
ATACTATCATGGACCGGTTTTCCCGGTAATCCGTATTTGAC (site ATACTATCTGT) | 3.39
ATACTATCATGGACCGGTTTTCCCGGTAATCCGTATTTGAC (site CTAGTATCTGT) | 0
ATAGGCCCATGGACCGGTTTTCCCGGTAATCCGTATTTGAA (site ATAGGCCCTTT) | 0.215
ATAGGGCCATGGACCGGTTTTCCCGGTAATCCGTATTTGAC (site ATAAGGCCTGT) | 1.44
